According to ChEMBL document CHEMBL1128086, “Serine protease selectivity of the thrombin inhibitor D-Phe-Pro-Agmatine and its homologs” (Bioorg Med Chem Lett, 1995):

Assays:
[1] = biological target: Serine protease 1 (Homo sapiens) (UniProt P07477); assay: In vitro inhibitory potency against trypsin
[2] = biological target: Urokinase-type plasminogen activator (Homo sapiens) (UniProt P00749); assay: In vitro inhibitory potency against Urokinase-type plasminogen activator in human; no enzyme inhibition was observed at an inhibitor concentration of 200 uM
[3] = biological target: Tissue-type plasminogen activator (Homo sapiens) (UniProt P00750); assay: In vitro inhibitory potency against n-tissue plasminogen activator in human; no enzyme inhibition was observed at an inhibitor concentration of 200 uM
[4] = biological target: Plasminogen (Homo sapiens) (UniProt P00747); assay: In vitro inhibitory potency against plasmin; no enzyme inhibition was observed at an inhibitor concentration of 200 uM
[5] = biological target: Prothrombin (Homo sapiens) (UniProt P00734); assay: In vitro inhibitory potency against human alpha-thrombin
[6] = biological target: Thrombin & trypsin (Homo sapiens) (UniProt P00734+P07477+P07478+P35030); assay: Selectivity ratio of thrombin Kass to trypsin Kass; type: protein assay
[7] = biological target: Urokinase-type plasminogen activator (Homo sapiens) (UniProt P00749); assay: In vitro inhibitory potency against Urokinase-type plasminogen activator in human
[8] = biological target: Plasminogen (Homo sapiens) (UniProt P00747); assay: In vitro inhibitory potency against plasmin
[9] = biological target: Tissue-type plasminogen activator (Homo sapiens) (UniProt P00750); assay: In vitro inhibitory potency against n-tissue plasminogen activator in human
[10] = Selectivity ratio of thrombin Kass to plasmin Kass
[11] = Selectivity ratio of thrombin Kass to ntPA Kass
[12] = biological target: Thrombin and urokinase-type plasminogen activator (Homo sapiens) (UniProt P00734+P00749); assay: Selectivity ratio of thrombin Kass to Urokinase Kass; type: protein assay
[13] = biological target: Tissue-type plasminogen activator (Homo sapiens) (UniProt P00750); assay: In vitro inhibitory potency against n-tissue plasminogen activator in humans; no enzyme inhibition was observed at an inhibitor concentration of 200 uM

Serine protease 1 (Homo sapiens), sequence (P07477 whole entry): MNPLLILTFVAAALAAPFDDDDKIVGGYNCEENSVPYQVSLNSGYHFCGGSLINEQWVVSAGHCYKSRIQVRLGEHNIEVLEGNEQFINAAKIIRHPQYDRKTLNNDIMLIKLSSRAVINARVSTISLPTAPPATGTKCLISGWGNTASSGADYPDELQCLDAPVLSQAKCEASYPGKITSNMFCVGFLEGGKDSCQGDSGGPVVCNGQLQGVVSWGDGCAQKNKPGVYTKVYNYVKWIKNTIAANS
Plasminogen (Homo sapiens), sequence (P00747 97-580 limits assumed): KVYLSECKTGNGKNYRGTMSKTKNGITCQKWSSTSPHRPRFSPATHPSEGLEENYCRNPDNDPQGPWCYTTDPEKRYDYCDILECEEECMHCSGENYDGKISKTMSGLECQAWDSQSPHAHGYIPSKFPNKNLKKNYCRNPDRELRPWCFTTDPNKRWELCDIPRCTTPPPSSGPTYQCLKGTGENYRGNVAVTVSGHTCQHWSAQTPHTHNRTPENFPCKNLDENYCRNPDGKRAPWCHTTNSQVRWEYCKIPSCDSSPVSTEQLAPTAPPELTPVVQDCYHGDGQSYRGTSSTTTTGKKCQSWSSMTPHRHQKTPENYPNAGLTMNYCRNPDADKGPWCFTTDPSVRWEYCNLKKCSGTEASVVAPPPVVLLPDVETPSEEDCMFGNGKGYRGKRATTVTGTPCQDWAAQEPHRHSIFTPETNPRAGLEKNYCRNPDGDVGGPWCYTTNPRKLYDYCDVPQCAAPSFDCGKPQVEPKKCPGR
Plasminogen (Homo sapiens), sequence (P00747 581-810 limits assumed): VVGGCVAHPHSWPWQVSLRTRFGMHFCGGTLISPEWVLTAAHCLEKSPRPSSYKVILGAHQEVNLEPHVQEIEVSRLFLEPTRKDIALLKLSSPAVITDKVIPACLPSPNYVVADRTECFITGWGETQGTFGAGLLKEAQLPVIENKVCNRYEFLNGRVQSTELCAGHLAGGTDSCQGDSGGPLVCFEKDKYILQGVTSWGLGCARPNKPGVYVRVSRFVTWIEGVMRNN
Tissue-type plasminogen activator (Homo sapiens), sequence (P00750 36-562 limits assumed): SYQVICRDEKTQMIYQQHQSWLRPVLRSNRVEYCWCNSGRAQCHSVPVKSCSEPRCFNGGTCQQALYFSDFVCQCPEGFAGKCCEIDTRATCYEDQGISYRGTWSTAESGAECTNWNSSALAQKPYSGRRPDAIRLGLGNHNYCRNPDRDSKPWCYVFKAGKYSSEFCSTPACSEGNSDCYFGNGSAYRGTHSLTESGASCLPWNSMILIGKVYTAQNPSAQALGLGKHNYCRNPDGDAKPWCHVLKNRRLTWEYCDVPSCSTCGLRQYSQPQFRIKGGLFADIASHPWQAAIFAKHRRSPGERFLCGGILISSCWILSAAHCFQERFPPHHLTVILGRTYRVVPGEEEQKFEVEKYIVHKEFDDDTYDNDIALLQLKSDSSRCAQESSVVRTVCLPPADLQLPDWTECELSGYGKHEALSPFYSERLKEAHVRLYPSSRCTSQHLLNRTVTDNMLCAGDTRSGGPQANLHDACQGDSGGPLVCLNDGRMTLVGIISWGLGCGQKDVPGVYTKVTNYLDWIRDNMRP

SMILES | K ass [1] | K ass [2] | K ass [3] | K ass [4] | K ass [5] | Ratio [6] | K ass [7] | K ass [8] | K ass [9] | Ratio [10] | Ratio [11] | Ratio [12] | K ass [13]
NC(N)=NCCCCCCNC(=O)[C@@H]1CCCN1C(=O)[C@H](N)Cc1ccccc1 | 600 l M-1 | < 250 l M-1 | < 250 l M-1 | < 250 l M-1 | 24000 l M-1 |  |  |  |  |  |  |  | 
CN[C@H](Cc1ccccc1)C(=O)N1CCC[C@H]1C(=O)NCCCCN=C(N)N | 240000 l M-1 |  |  |  | 2.4e+06 l M-1 | 10 | 180 l M-1 | 1100 l M-1 | 1100 l M-1 | 2100 | 2100 | 13000 | 
CN[C@H](Cc1ccccc1)C(=O)N1CCC[C@H]1C(=O)N[C@H](C=O)CCCNC(=N)N | 8.8e+07 l M-1 |  |  |  | 4.6e+08 l M-1 | 5.2 | 32000 l M-1 | 1.8e+06 l M-1 | 50000 l M-1 | 260 | 8500 | 14000 | 
NC(N)=NCCCCCNC(=O)[C@@H]1CCCN1C(=O)[C@H](N)Cc1ccccc1 | 2700 l M-1 | < 250 l M-1 |  | < 250 l M-1 | 1.3e+06 l M-1 | 480 |  |  |  | > 5200 | > 5200 | > 5200 | < 250 l M-1

Second part, the compound after the results:

K ass [1] | K ass [2] | K ass [3] | K ass [4] | K ass [5] | Ratio [6] | K ass [7] | K ass [8] | K ass [9] | Ratio [10] | Ratio [11] | Ratio [12] | K ass [13] | SMILES
14000 l M-1 | < 250 l M-1 |  | < 250 l M-1 | 1.4e+06 l M-1 | 100 |  |  | 4100 l M-1 | > 5600 | 341 | 5600 |  | NC(N)=NCCCNC(=O)[C@@H]1CCCN1C(=O)[C@H](N)Cc1ccccc1
1.1e+08 l M-1 |  |  |  | 5.4e+08 l M-1 | 5.1 | 42000 l M-1 | 1.4e+06 l M-1 | 290000 l M-1 | 390 | 1800 | 13000 |  | NC(N)=NCCC[C@@H](C=O)NC(=O)[C@@H]1CCCN1C(=O)[C@H](N)Cc1ccccc1
170000 l M-1 |  |  |  | 5.5e+06 l M-1 | 33 | 180 l M-1 | 1200 l M-1 | 6000 l M-1 | 4600 | 920 | 31000 |  | NC(N)=NCCCCNC(=O)C1CCCN1C(=O)[C@H](N)Cc1ccccc1 (some centres undefined)
